From patent US9701680B2, “Pyrimidine and pyridine compounds and their usage” (HUTCHISON MEDIPHARMA LIMITED, priority 2013, dated 2017)
Read-outs that look alike come from different tables or passages of the source.

Legend:
RT-112 = experiment: Cellular Proliferation Assay (Cell Counting Kit-8), RT-112; type: cell-based; conditions: Homo sapiens; RT-112 cells, 72 hours
In short: (§1)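 Seeding per well: KG-1 30000, SNU-16 5000, RT-112 1000 cells. After 24 h an 8-point series (working dilutions 10 to 0.004 μM in 5% DMSO) was added for 72 h at 37 °C, 5% CO2. CCK-8 OD450 after 1 h, corrected for media background and normalised to untreated cells, gave IC50.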

Recombinant human FGFR1 = Recombinant human FGFR1 (Homo sapiens, UniProt P11362); experiment: Transcreener Kinase Assay of FGFR1; type: biochemical
In short: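 Recombinant human FGFR1 was reacted with Poly E4Y substrate and ATP for 45 min at 28 °C, with compounds at 1 to 0.0005 µM in 1% DMSO final. Inhibition is relative to the DMSO control, with IC50 from a curve fit.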

SNU-16 = experiment: Cellular Proliferation Assay (Cell Counting Kit-8), SNU-16; type: cell-based; conditions: Homo sapiens; SNU-16 cells, 72 hours
In short: as §1

FGFR3 kinase = FGFR3 kinase (Homo sapiens, UniProt P22607); experiment: Z-Lyte Kinase Assay of FGFR3; type: biochemical
In short: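 Z-LYTE FRET assay, kinase 0.7 μg/ml with Tyr 4 peptide 4 μM (P/K solution), ATP diluted to 300 uM in 1.33× buffer; compound final 1 to 0.00046 μM, 2% DMSO.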

KG-1 = experiment: Cellular Proliferation Assay (Cell Counting Kit-8), KG-1; type: cell-based; conditions: Homo sapiens; KG-1 cells, 72 hours; read-out: KG1 IC50
In short: as §1

Recombinant human FGFR2 = Recombinant human FGFR2 (Homo sapiens, UniProt P21802); experiment: Transcreener Kinase Assay of FGFR2; type: biochemical
Recombinant human FGFR2, sequence (P21802 22-821): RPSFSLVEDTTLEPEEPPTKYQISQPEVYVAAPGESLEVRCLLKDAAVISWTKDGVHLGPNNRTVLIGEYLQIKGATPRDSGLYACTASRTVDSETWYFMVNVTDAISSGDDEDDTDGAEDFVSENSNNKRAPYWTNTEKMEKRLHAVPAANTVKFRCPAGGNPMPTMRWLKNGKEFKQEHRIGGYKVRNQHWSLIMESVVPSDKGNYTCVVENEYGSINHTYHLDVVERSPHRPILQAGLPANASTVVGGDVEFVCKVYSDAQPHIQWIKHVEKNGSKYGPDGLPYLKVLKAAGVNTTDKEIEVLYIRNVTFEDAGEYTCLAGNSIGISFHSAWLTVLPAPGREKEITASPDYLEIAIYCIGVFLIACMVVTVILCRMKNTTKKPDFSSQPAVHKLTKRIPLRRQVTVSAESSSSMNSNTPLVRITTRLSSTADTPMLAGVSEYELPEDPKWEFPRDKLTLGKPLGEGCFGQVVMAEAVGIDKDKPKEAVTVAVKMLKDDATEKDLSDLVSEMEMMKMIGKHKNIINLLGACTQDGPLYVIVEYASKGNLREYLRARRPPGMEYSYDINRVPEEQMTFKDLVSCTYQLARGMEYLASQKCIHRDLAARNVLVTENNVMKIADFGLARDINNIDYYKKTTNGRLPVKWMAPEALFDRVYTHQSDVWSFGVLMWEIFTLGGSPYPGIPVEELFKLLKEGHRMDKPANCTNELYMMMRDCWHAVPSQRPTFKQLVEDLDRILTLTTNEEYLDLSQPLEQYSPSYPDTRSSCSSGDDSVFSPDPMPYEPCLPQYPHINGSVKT

FGFR3 kinase, sequence (P22607 23-806): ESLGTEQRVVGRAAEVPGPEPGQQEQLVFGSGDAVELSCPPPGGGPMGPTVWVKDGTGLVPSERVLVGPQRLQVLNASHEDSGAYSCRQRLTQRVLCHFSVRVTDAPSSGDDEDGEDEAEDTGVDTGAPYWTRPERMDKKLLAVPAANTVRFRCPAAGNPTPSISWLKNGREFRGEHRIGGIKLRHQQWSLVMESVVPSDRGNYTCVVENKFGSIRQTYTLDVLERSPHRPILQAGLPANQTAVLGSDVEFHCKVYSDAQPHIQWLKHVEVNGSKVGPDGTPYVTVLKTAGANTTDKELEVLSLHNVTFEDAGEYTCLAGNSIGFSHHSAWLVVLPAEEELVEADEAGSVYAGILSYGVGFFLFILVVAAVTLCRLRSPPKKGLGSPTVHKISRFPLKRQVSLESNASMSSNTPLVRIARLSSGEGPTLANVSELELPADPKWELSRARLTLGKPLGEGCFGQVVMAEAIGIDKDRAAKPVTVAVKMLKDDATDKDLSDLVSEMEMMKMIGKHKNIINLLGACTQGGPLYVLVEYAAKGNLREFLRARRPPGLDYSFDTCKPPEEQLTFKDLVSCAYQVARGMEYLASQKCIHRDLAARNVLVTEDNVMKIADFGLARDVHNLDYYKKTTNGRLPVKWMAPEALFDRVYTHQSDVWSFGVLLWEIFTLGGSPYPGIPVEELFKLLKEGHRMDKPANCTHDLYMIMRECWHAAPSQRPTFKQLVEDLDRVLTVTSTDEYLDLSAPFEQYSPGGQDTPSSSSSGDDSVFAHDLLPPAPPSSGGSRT
Recombinant human FGFR1, sequence (P11362 22-822): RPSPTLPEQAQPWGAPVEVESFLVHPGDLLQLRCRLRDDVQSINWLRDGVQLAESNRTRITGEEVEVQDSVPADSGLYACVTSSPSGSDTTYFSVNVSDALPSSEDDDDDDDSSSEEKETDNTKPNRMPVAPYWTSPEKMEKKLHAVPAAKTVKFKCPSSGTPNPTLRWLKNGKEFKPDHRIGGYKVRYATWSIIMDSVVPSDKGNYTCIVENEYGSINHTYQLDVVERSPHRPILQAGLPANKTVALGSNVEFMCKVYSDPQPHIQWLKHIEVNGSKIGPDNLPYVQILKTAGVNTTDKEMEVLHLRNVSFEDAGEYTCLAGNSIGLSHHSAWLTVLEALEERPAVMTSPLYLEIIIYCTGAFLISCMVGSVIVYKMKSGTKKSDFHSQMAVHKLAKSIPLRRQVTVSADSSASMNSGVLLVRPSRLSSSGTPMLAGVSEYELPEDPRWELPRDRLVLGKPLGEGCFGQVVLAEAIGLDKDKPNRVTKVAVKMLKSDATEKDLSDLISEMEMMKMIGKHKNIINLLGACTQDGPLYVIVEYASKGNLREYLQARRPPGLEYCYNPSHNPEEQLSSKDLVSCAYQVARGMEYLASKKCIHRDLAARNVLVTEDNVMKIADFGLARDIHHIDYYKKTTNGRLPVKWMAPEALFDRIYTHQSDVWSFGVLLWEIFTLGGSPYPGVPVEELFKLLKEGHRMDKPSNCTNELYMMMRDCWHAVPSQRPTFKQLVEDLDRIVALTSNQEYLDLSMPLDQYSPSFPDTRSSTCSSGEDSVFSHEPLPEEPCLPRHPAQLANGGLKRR

CNC(=O)c1cc(C#Cc2cnc(Nc3ccc(N4C[C@@H](C)N[C@@H](C)C4)c(OC)c3)nc2)c(F)c(OC)c1 [Compound 306]
IC50 (RT-112): 16 nM
IC50 (Recombinant human FGFR1; FP): 29 nM
IC50 (SNU-16): 23 nM
IC50 (FGFR3 kinase; Z-lyte): 26 nM
IC50 (KG-1): 100 nM
IC50 (Recombinant human FGFR2; FP): 12 nM

CNC(=O)c1cc(CCc2cnc(Nc3ccc(N4C[C@@H](C)N(C)[C@@H](C)C4)nc3)nc2)c(Cl)c(OC)c1 [Compound 158]
IC50 (RT-112): 29 nM
IC50 (Recombinant human FGFR1; read-out: FGFR1 (FP) IC50): 14 nM
IC50 (SNU-16): 7 nM
IC50 (FGFR3 kinase): 6 nM
IC50 (KG-1): 16 nM
IC50 (Recombinant human FGFR2; read-out: FGFR2 (FP) IC50): 7 nM

CNC(=O)c1cc(COc2cnc(Nc3ccc(-c4cnn(C)c4)cc3)nc2)c(F)c(OC)c1 [Compound 228]
IC50 (RT-112): 270 nM
IC50 (Recombinant human FGFR1; read-out: FGFR1 (FP) IC50): 29 nM
IC50 (SNU-16): 97 nM
IC50 (FGFR3 kinase): 120 nM
IC50 (KG-1): 94 nM
IC50 (Recombinant human FGFR2; read-out: FGFR2 (FP) IC50): 18 nM

CNC(=O)c1cc(COc2cnc(Nc3ccc(N4CCN(C)CC4)c(OC)c3)nc2)c(F)c(OC)c1 [Compound 269]
IC50 (RT-112): 5 nM
IC50 (Recombinant human FGFR1; read-out: FGFR1 (FP) IC50): 10 nM
IC50 (SNU-16): 6 nM
IC50 (FGFR3 kinase): 5 nM
IC50 (KG-1): 6 nM
IC50 (Recombinant human FGFR2; read-out: FGFR2 (FP) IC50): 7 nM

CCN1[C@H](C)CN(c2ccc(Nc3ncc(OCc4cc(C(=O)NC)cc(OC)c4F)cn3)cn2)C[C@@H]1C [Compound 281]
IC50 (RT-112): 37 nM
IC50 (Recombinant human FGFR1; FP): 19 nM
IC50 (SNU-16): 14 nM
IC50 (FGFR3 kinase; Z-lyte): 19 nM
IC50 (KG-1): 9 nM
IC50 (Recombinant human FGFR2; FP): 14 nM

CNC(=O)c1cc(COc2cnc(Nc3ccc(S(C)(=O)=O)cc3)nc2)c(F)c(OC)c1 [Compound 226]
IC50 (RT-112): 285 nM
IC50 (Recombinant human FGFR1; read-out: FGFR1 (FP) IC50): 30 nM
IC50 (SNU-16): 32 nM
IC50 (FGFR3 kinase): 27 nM
IC50 (KG-1): 35 nM
IC50 (Recombinant human FGFR2; read-out: FGFR2 (FP) IC50): 10 nM

CNC(=O)c1cc(COc2cnc(Nc3cnc(N4C[C@@H](C)N[C@@H](C)C4)c(F)c3)nc2)c(F)c(OC)c1 [Compound 277]
IC50 (RT-112): 109 nM
IC50 (Recombinant human FGFR1; read-out: FGFR1 (FP) IC50): 20 nM
IC50 (SNU-16): 36 nM
IC50 (FGFR3 kinase): 18 nM
IC50 (KG-1): 57 nM
IC50 (Recombinant human FGFR2; read-out: FGFR2 (FP) IC50): 14 nM

CNC(=O)c1cc(COc2cnc(Nc3ccc(-n4ccnn4)cc3)nc2)c(F)c(OC)c1 [Compound 222]
IC50 (RT-112): 83 nM
IC50 (Recombinant human FGFR1; read-out: FGFR1 (FP) IC50): 39 nM
IC50 (SNU-16): 34 nM
IC50 (FGFR3 kinase): 40 nM
IC50 (KG-1): 52 nM
IC50 (Recombinant human FGFR2; read-out: FGFR2 (FP) IC50): 12 nM

CNC(=O)c1cc(OC)c(Cl)c(COc2cnc(Nc3ccc(N4C[C@@H](C)N[C@@H](C)C4)c(C)c3)nc2)c1F [Compound 298]
IC50 (RT-112): 15 nM
IC50 (Recombinant human FGFR1; FP): 9 nM
IC50 (SNU-16): 14 nM
IC50 (FGFR3 kinase; Z-lyte): 13 nM
IC50 (KG-1): 8 nM
IC50 (Recombinant human FGFR2; FP): 8 nM

CNC(=O)c1cc(COc2cnc(Nc3cnc(N4C[C@@H](C)N[C@@H](C)C4)c(C)c3)nc2)c(Cl)c(OC)c1 [Compound 287]
IC50 (RT-112): 35 nM
IC50 (Recombinant human FGFR1; FP): 11 nM
IC50 (SNU-16): 14 nM
IC50 (FGFR3 kinase; Z-lyte): 8 nM
IC50 (KG-1): 54 nM
IC50 (Recombinant human FGFR2; FP): 8 nM

CNC(=O)c1cc(COc2cnc(Nc3ccc(OC)c(N4CCN(C)CC4)c3)nc2)c(F)c(OC)c1 [Compound 270]
IC50 (RT-112): 23 nM
IC50 (Recombinant human FGFR1; read-out: FGFR1 (FP) IC50): 18 nM
IC50 (SNU-16): 10 nM
IC50 (FGFR3 kinase): 8 nM
IC50 (KG-1): 52 nM
IC50 (Recombinant human FGFR2; read-out: FGFR2 (FP) IC50): 9 nM

CNC(=O)c1cc(COc2cnc(Nc3cccc(CCN4CCN(CCOC)CC4)c3)nc2)c(F)c(OC)c1 [Compound 301]
IC50 (RT-112): 37 nM
IC50 (Recombinant human FGFR1; FP): 9 nM
IC50 (SNU-16): 11 nM
IC50 (FGFR3 kinase; Z-lyte): 10 nM
IC50 (KG-1): 24 nM
IC50 (Recombinant human FGFR2; FP): 6 nM

CNC(=O)c1cc(COc2cnc(Nc3cccc(-n4nccn4)c3)nc2)c(Cl)c(OC)c1 [Compound 232]
IC50 (RT-112): 107 nM
IC50 (Recombinant human FGFR1; read-out: FGFR1 (FP) IC50): 17 nM
IC50 (SNU-16): 60 nM
IC50 (FGFR3 kinase): 228 nM
IC50 (KG-1): 70 nM
IC50 (Recombinant human FGFR2; read-out: FGFR2 (FP) IC50): 9 nM

CNC(=O)c1cc(CCc2cnc(Nc3ccc(N4C[C@@H](C)N(C)[C@@H](C)C4)cc3)nc2)c(F)c(OC)c1 [Compound 171]
IC50 (RT-112): 43 nM
IC50 (Recombinant human FGFR1; read-out: FGFR1 (FP) IC50): 12 nM
IC50 (SNU-16): 16 nM
IC50 (FGFR3 kinase): 11 nM
IC50 (KG-1): 8 nM
IC50 (Recombinant human FGFR2; read-out: FGFR2 (FP) IC50): 8 nM

CCN1CCN(c2ccc(Nc3ncc(C#Cc4cc(C(=O)NC)cc(OC)c4F)cn3)cc2OC)CC1 [Compound 307]
IC50 (RT-112): 5 nM
IC50 (Recombinant human FGFR1; FP): 19 nM
IC50 (SNU-16): 1 nM
IC50 (FGFR3 kinase; Z-lyte): 21 nM
IC50 (KG-1): 5 nM
IC50 (Recombinant human FGFR2; FP): 17 nM

CNC(=O)c1cc(COc2cnc(Nc3cnc(N4C[C@@H](C)N[C@@H](C)C4)c(F)c3)nc2)c(Cl)c(OC)c1 [Compound 292]
IC50 (RT-112): 70 nM
IC50 (Recombinant human FGFR1; FP): 13 nM
IC50 (SNU-16): 17 nM
IC50 (FGFR3 kinase; Z-lyte): 14 nM
IC50 (KG-1): 46 nM
IC50 (Recombinant human FGFR2; FP): 11 nM

CNC(=O)c1cc(CCc2cnc(Nc3ccc(N4C[C@@H](C)N(C)[C@@H](C)C4)cc3)nc2)c(Cl)c(OC)c1 [Compound 175]
IC50 (RT-112): 30 nM
IC50 (Recombinant human FGFR1; read-out: FGFR1 (FP) IC50): 12 nM
IC50 (SNU-16): 12 nM
IC50 (FGFR3 kinase): 6 nM
IC50 (KG-1): 11 nM
IC50 (Recombinant human FGFR2; read-out: FGFR2 (FP) IC50): 8 nM

CNC(=O)c1cc(COc2cnc(Nc3ccc(N4C[C@@H](C)N(C)[C@@H](C)C4)cc3)nc2)c(F)c(OC)c1 [Compound 267]
IC50 (RT-112): 33 nM
IC50 (Recombinant human FGFR1; read-out: FGFR1 (FP) IC50): 6 nM
IC50 (SNU-16): 17 nM
IC50 (FGFR3 kinase): 8 nM
IC50 (KG-1): 28 nM
IC50 (Recombinant human FGFR2; read-out: FGFR2 (FP) IC50): 6 nM

CNC(=O)c1cc(COc2cnc(Nc3cccc(OC)c3)nc2)c(F)c(OC)c1 [Compound 212]
IC50 (RT-112): 57 nM
IC50 (Recombinant human FGFR1; read-out: FGFR1 (FP) IC50): 26 nM
IC50 (SNU-16): 14 nM
IC50 (FGFR3 kinase): 80 nM
IC50 (KG-1): 59 nM
IC50 (Recombinant human FGFR2; read-out: FGFR2 (FP) IC50): 16 nM

CNC(=O)c1cc(OC)c(F)c(COc2cnc(Nc3ccc(N4C[C@@H](C)N[C@@H](C)C4)nc3)nc2)c1F [Compound 278]
IC50 (RT-112): 65 nM
IC50 (Recombinant human FGFR1; FP): 23 nM
IC50 (SNU-16): 27 nM
IC50 (FGFR3 kinase; Z-lyte): 20 nM
IC50 (KG-1): 34 nM
IC50 (Recombinant human FGFR2; FP): 14 nM

CNC(=O)c1cc(CCc2cnc(Nc3cnn(C[C@H](C)O)c3)nc2)c(Cl)c(OC)c1 [Compound 88]
IC50 (RT-112): 50 nM
IC50 (Recombinant human FGFR1; read-out: FGFR1 (FP) IC50): 12 nM
IC50 (SNU-16): 24 nM
IC50 (FGFR3 kinase): 3 nM
IC50 (KG-1): 30 nM
IC50 (Recombinant human FGFR2; read-out: FGFR2 (FP) IC50): 5 nM

CCCN1CC(c2ccc(Nc3ncc(OCc4cc(C(=O)NC)cc(OC)c4F)cn3)cn2)C1 [Compound 241]
IC50 (RT-112): 112 nM
IC50 (Recombinant human FGFR1; read-out: FGFR1 (FP) IC50): 31 nM
IC50 (SNU-16): 31 nM
IC50 (FGFR3 kinase): 19 nM
IC50 (KG-1): 162 nM
IC50 (Recombinant human FGFR2; read-out: FGFR2 (FP) IC50): 21 nM

CNC(=O)c1cc(COc2cnc(Nc3cccc(-n4ccnn4)c3)nc2)c(Cl)c(OC)c1 [Compound 234]
IC50 (RT-112): 35 nM
IC50 (Recombinant human FGFR1; read-out: FGFR1 (FP) IC50): 6 nM
IC50 (SNU-16): 15 nM
IC50 (FGFR3 kinase): 30 nM
IC50 (KG-1): 14 nM
IC50 (Recombinant human FGFR2; read-out: FGFR2 (FP) IC50): 4 nM

CCN(CC)CCc1cccc(Nc2ncc(OCc3cc(C(=O)NC)cc(OC)c3F)cn2)c1 [Compound 243]
IC50 (RT-112): 15 nM
IC50 (Recombinant human FGFR1; read-out: FGFR1 (FP) IC50): 20 nM
IC50 (SNU-16): 6 nM
IC50 (FGFR3 kinase): 9 nM
IC50 (KG-1): 69 nM
IC50 (Recombinant human FGFR2; read-out: FGFR2 (FP) IC50): 9 nM

CNC(=O)c1cc(COc2cnc(Nc3ccc(N4CCC(N(C)C)CC4)cc3)nc2)c(F)c(OC)c1 [Compound 264]
IC50 (RT-112): 8 nM
IC50 (Recombinant human FGFR1; read-out: FGFR1 (FP) IC50): 10 nM
IC50 (SNU-16): 8 nM
IC50 (FGFR3 kinase): 6 nM
IC50 (KG-1): 7 nM
IC50 (Recombinant human FGFR2; read-out: FGFR2 (FP) IC50): 5 nM

CNC(=O)c1cc(CCc2cnc(Nc3ccc(O)cc3)nc2)c(Cl)c(OC)c1 [Compound 81]
IC50 (RT-112): 133 nM
IC50 (Recombinant human FGFR1; read-out: FGFR1 (FP) IC50): 17 nM
IC50 (SNU-16): 59 nM
IC50 (FGFR3 kinase): 26 nM
IC50 (KG-1): 26 nM
IC50 (Recombinant human FGFR2; read-out: FGFR2 (FP) IC50): 13 nM
